Experimental data taken from patent US11447495B2, “Substituted benzo[f]imidazo[1,5-a][1,4]diazepines as GABA(a) receptor modulators” (priority 2016, dated 2022).

What was measured:
[1] = tested on: GABAA receptor subtypes α1β3γ2, α2β3γ2, α3β3γ2, α4β3γ2 and α5β3γ2; assay: Two-electrode voltage clamp, modulation of GABA (EC3-5) elicited currents in Xenopus oocytes; format: cell-based
Description: Compounds having selective activity bias for α4 and α5-GABAAR can be identified. Patch clamp assays are used to quantify chloride flux induced inward currents resulting from agonism of GABAAR containing single α-subunits. […] For electrophysiological experiments with Xenopus oocytes (Ramerstorfer et al. European journal of pharmacology 2010, 636, 8-27) mature female Xenopus laevis (Nasco, Fort Atkinson, Wis., USA) were anaesthetized in a bath of ice-cold 0.17% Tricain (Ethyl-m-aminobenzoate) before decapitation and transfer of the frog's ovary to ND96 medium (96 mM NaCl, 2 mM KCl, 1 mM MgCl2, 5 mM HEPES; pH 7.5). Following incubation in 1 mg/ml collagenase (Sigma-Aldrich, St. Louis, Mo., USA) for 30 minutes, stage 5 to 6 oocytes were singled out of the ovary and defolliculated using a platinum wire loop. […] Maximum currents measured in mRNA injected oocytes were in the microampere range for all receptor subtypes. […] Data were digitized using a Digidata 1322A or 1550 data acquisition system (Axon Instruments, Union City, Calif., USA), recorded using Clampex 10.5 software (Molecular Devices, Sunnyvale, Calif., USA), and analyzed using Clampfit 10.5 and GraphPad Prism 6.0 (La Jolla, Calif., USA) software. […]

[2] = tested on: lung cells; assay: Lung cell proliferation by EdU incorporation; format: in vivo; settings: Ova s/c mice, treated versus non-treated
Protocol: ASM hyperplasia was determined by incooperation of EdU into the DNA of newly formed cells. Herein, at the end of the ovalbumin sensitization and challenge protocol, mice received a single i.p. injection of EdU (Invitrogen, Carlsbad, Calif.) at a dose of 100 mg/kg. Mice were euthanized 4 hours after injection and the lungs formalin fixed, harvested and paraffin embedded. 6 μm sections of formalin fixed and paraffin embedded lung sections were mounted onto Fisher Superfrost Plus Slides. EdU staining was conducted using Click-iT™ EdU imaging kit (Invitrogen, Carlsbad, Calif.) according to manufacturer's instructions. Briefly lungs were deparaffinized in histoclear and rehydrated in graded ethanol. Tissue sections were washed twice with 3% bovine serum albumin (BSA) in PBS and permeablized with 0.5% Triton X-100 in PBS for 20 minutes. The sections were again washed twice with 3% BSA in PBS and then incubated with a Click-iT™ reaction cocktail containing Click-iT™ reaction buffer, CuSO4, Alexa Fluor® 488 Azide, and reaction buffer additive for 30 minutes in the dark. […] Lung sections of non-treated and GL-II-93 treated Ova s/c mice were analyzed for the incooperation of EdU, a thymidine analog that can be visualized after click chemistry with a fluorescent azide. For the negative control EdU was not injected resulting in no visible fluorescence. […]

Compound	GABAA receptor subtype selectivity, modulation of GABA elicited currents [1]	proliferation of lung cells (EdU) [2]
C#Cc1ccc2c(c1)C(c1ccccc1F)=N[C@H](C)c1c(C(=O)O)ncn1-2 [SH-053-2′F-R-CH3-Acid, (R)-8-ethynyl-6-(2-fluorophenyl)-4-methyl-4H-benzo[f]imidazo[1,5-a][1,4]diazepine-3-carboxylic acid]	positive α5β3γ2-selective GABAA receptor modulator	–
C[C@H]1N=C(c2ccccc2F)c2cc(Br)ccc2-n2cnc(C(=O)O)c21 [GL-II-93, (R)-8-bromo-6-(2-fluorophenyl)-4-methyl-4H-benzo[f]imidazo[1,5-a][1,4]diazepine-3-carboxylic acid]	–	Non-treated Ova S/C mice showed a high proliferation rate in comparison to GL-II-93 treated animals
